Results: publication PMC7355937, “Structure-Based Discovery of Dual-Target Hits for Acetylcholinesterase and the α7 Nicotinic Acetylcholine Receptors: In Silico Studies and In Vitro Confirmation” (Molecules, 2020)
Several values for one entry are separate records, joined by “and”; a condition that tells them apart may be missing. Identical values can stand only once. Like-named read-outs stand apart in the source and are kept apart here.

What was measured:
human recombinant AChE = biological target: T1, human recombinant AChE (Homo sapiens, UniProt P22303); test: biochemical; conditions: for inhibition at 200 µM: compound soluble in MeOH; for AChE %Inhibition of supernatant (MeOH): poorly soluble compound, methanol supernatant tested, nominal 200 µM
T1 construct: purchased Sigma-Aldrich Co. LLC C1682
T1 sequence (P22303 32-614): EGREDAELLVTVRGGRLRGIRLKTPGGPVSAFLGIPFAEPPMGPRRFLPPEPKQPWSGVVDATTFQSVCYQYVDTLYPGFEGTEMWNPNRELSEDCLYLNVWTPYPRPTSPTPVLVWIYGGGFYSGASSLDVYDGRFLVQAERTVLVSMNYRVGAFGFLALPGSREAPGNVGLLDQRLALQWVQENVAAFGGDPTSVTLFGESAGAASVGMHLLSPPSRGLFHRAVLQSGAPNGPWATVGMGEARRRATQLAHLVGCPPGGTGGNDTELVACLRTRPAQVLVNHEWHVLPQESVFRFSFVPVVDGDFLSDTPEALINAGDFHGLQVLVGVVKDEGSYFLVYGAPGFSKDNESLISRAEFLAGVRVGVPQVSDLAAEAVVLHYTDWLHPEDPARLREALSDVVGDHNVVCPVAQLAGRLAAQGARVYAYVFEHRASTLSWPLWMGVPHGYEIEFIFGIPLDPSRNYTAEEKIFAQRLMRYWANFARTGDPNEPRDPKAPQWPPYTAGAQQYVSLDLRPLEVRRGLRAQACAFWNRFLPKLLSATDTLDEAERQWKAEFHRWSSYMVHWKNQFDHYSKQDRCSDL
Description: For five poorly soluble compounds, the methanol supernatants were tested. Ellman’s colorimetric analysis is based on the breakdown of acetylthiocholine (ATCI) by AChE to thiocholine and acetic acid. Ellman’s reagent in turn reacts with the thiol group of thiocholine resulting in a yellow color indicating the extent of enzymatic activity. […] In vitro AChE inhibitory activity was studied using the colorimetric method of Ellman using human recombinant AChE enzyme. To a 96-well microplate, test solutions were applied along with 1 mg/mL bovine serum albumin, 0.5 mM 5,5-dithiobis-(2-nitro-benzoic acid), and 0.5 mM acetylthiocholine iodide. […] Experiments were conducted in triplicate.
(§1) Data analysis was performed as reported previously. […] During analysis, traces were baseline subtracted and responses to individual applications quantified as peak-current amplitudes. Statistical calculations were performed using GraphPad Prism 7 (GraphPad Software, GraphPad, San Diego, CA, USA). Activation of the α7 nAChR was calculated as a percentage of Emax response to ACh. For evaluation of the inhibitory activity, the percentage of remaining peak-current amplitudes relative to that of the AChcontrol (EC20) application was calculated. AChE inhibition data were analyzed using GraphPad Prism 7. Absorption readings from the AChE inhibition assay were plotted versus time and linear regression was performed. […] Data were fitted with the slope set to 1 and remaining current amplitude at infinitely high compound concentrations set to 0.

human α7 nAChR [1] = biological target: T2, human α7 nAChR (Homo sapiens, UniProt P36544); test: α7 nAChR inhibition of ACh-evoked currents (antagonist test), two-electrode voltage-clamp electrophysiology in Xenopus oocytes; format: cell-based; conditions: -60 mV
T2 construct: expressed in transfected cells; host or cells: Xenopus laevis oocytes (cRNA injection)
T2 sequence (P36544 23-502): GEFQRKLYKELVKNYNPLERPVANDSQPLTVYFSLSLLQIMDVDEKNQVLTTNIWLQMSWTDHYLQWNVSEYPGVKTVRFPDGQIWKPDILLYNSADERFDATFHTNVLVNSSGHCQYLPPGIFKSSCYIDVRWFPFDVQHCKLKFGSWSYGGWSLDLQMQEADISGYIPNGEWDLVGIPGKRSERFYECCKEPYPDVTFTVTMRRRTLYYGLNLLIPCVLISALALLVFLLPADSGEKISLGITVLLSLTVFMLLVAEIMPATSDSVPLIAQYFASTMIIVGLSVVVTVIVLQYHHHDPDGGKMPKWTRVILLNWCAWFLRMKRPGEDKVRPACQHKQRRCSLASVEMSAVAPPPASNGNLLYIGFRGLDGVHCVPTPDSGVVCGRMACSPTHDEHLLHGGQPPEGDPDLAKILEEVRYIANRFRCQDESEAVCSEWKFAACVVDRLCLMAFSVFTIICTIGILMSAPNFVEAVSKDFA
Description: (§2) Compounds were tested for direct activation of the α7 nAChR in a 0.2–200 µM concentration range. Compounds displaying less than 1% direct activation were further evaluated at 100 µM for their ability to alter currents evoked by 30 µM ACh.
(§3) Xenopus laevis oocytes were obtained as described previously, briefly, ovary lobes were removed by surgical incision, sliced into small pieces and defolliculated by collagenase treatment. […] Stage V and VI oocytes were injected with a total of ~25 ng of cRNA encoding human α7 nAChR with RIC3 (in 5:1 ratio), a protein enhancing the expression of the receptor. Injected oocytes were incubated for 3–5 days at 18 °C in a saline solution (96 mM NaCl, 2 mM KCl, 1 mM MgCl2, 1.8 mM CaCl2, 5 mM HEPES (hemisodium, pH 7.4)) supplemented with 2.5 mM sodium pyruvate, 0.5 mM theophylline, and 50 µM gentamycin.
(§4) Electrophysiological recordings from Xenopus laevis oocytes were performed using the two-electrode voltage-clamp technique as described previously. Briefly, oocytes were placed in a custom-built recording chamber and continuously perfused with a saline solution. The saline solution contained 96 mM NaCl, 2 mM KCl, 1 mM MgCl2, 1.8 mM CaCl2, 5 mM HEPES (hemisodium, pH 7.4). Pipettes were backfilled with 3 M KCl and open-pipette resistances ranged from 0.3 to 1.5 MΩ when submerged in the saline solution. Oocytes were voltage clamped at a holding potential of −60 mV using an Axon Geneclamp 500B amplifier (Molecular Devices, LLC, San Jose, CA, USA). Rapid solution exchange in the oocyte vicinity (order of a few seconds) was ensured by application through a 1.5 mm diameter capillary tube placed approximately 2 mm from the oocyte as described previously. The solution flow rate through the capillary was 2.0 mL/min. […] Thereafter, test compounds in increasing concentration were applied (25 s), the maximal tested concentration was 200 µM. A wash period of at least 2 min was kept between each application. […] In these experiments, 10 and 100 µM concentration of a test compound was co-applied with 30 µM ACh. Peak current amplitudes were normalized with respect to the amplitude of current elicited by 3 mM or 30 µM ACh for the agonist and antagonist test, respectively. All experiments were conducted at least in triplicate.
as §1

human α7 nAChR [2] = biological target: T2, human α7 nAChR; test: α7 nAChR direct activation (agonist test), two-electrode voltage-clamp electrophysiology in Xenopus oocytes; format: cell-based; conditions: for activation at 200 µM: read-out: α7 nAChR %Activation
Description: as §2, §3, §4, §1

α7 nAChR = conditions: cited from earlier work
[3] = five to eight concentrations, read-out: AChE IC50
[4] = 100 µM compound co-applied with 30 µM ACh, read-out: α7 nAChR %Inhibition
[5] = 200 µM, normalized to 3 mM ACh response, -60 mV

Row | Structure (SMILES) | inhibition at 200 µM (human recombinant AChE) [%] | IC50 (human recombinant AChE; [3]) [µM] | inhibition at 100 µM (human α7 nAChR [1]; [4]) [%] | activation at 200 µM (human α7 nAChR [2]; [5]) [%] | further results
1 | Cc1cc(F)ccc1S(=O)(=O)NCc1ccc(CN2CCCC2)cc1 [Ýmir-14 (19)] | 100 | 1.32 | 96 | 0.7 | 
2 | Cc1nnc2ncc(-c3ccc(C(C)N(C)C)cc3)cn12 (centres unmarked) [Ýmir-2 (7), N,N-dimethyl-1-(4-(3-methyl-[1,2,4]triazolo[4,3-a]pyrimidin-6-yl)phenyl)ethan-1-amine] | 98.4 | 2.58 |  |  | α7 nAChR %Activation (human α7 nAChR [2]; [5]): 7.0% and 7.0 ± 0.9%; activation at 200 µM (human α7 nAChR [2]): 7 ± 0.9%
3 | O=C(Nc1ccc(CN2CCCCC2)cc1)c1ccc(Cl)cc1 [Compound 11] |  |  | 73.3 | 0.7 | AChE %Inhibition of supernatant (MeOH) (human recombinant AChE): 100%
4 | Cc1cccc(NC(=O)c2ccc(CN3CCCCCC3)cc2)c1C [Compound 13] | 82.5 | 30.2 | 68 | 0.7 | 
5 | CN(C)Cc1ccc(-c2ccc(N(C)C)nc2)nc1 [Compound 6] | 76.1 | 58.5 | 47.2 | 0.4 | 
6 | C[C@H]1CCCN(Cc2ccc(NC(=O)CCc3ccc(C#N)cc3)cc2)C1 [Compound 20] | 86 | 33.5 | 94.3 | 0.3 | 
7 | Cc1ccc2cc(NC(=O)NCCN3CCCC3)ccc2n1 [Ýmir-10 (15)] | 66.6 | 115 |  |  | α7 nAChR %Activation (human α7 nAChR [2]; [5]): 2.3% and 2.3 ± 0.4%; activation at 200 µM (human α7 nAChR [2]): 2.3 ± 0.4%
8 | O=c1[nH]c2ccccc2c(=O)n1-c1ccc(CN2CCCC2)cc1 [Compound 12] |  |  | 81.7 | 0.3 | AChE %Inhibition of supernatant (MeOH) (human recombinant AChE): 63.7 ± 4.4%
9 | CC(=O)c1cccc(NC(=O)c2ccc(CN3CCCCCC3)cc2)c1 [Compound 18] | 91.6 | 17.9 | 68.7 | 0.7 | 
10 | CC(=O)c1cccc(NC(=O)c2ccc(CN3CCCCC3)cc2)c1 [Compound 14] | 100 | 1.1 | 60 | 0.3 | 
11 | O=C(Nc1cccc(CN2CCCC2)c1)C1=Cc2cc(Cl)ccc2OC1 [Compound 16] |  |  | 90.7 | 1 | AChE %Inhibition of supernatant (MeOH) (human recombinant AChE): 100%
12 | O=C(Nc1cccc(CN2CCCCC2)c1)c1ccccc1F [Compound 10] | 90.8 | 11.3 | 85 | 0.3 | 
13 | c1cc(-c2ccc(-c3ccc(CN4CCCC4)cn3)cc2)n[nH]1 [Compound 8] |  |  | 59 | 0.3 | AChE %Inhibition of supernatant (MeOH) (human recombinant AChE): 100%
14 | Nc1nc(-c2ccsc2)cc(N(Cc2ccccn2)Cc2ccccn2)n1 [Compound 44, N4,N4-bis[(pyridin-2-yl)methyl]-6-(thiophen-3-yl)pyrimidine-2,4-diamine] |  |  |  |  | α7-pEC50 (α7 nAChR): 6.3
15 | O=C(Nc1nc(CN2CCCCC2)cs1)c1cc(O)nc2ccccc12 [Ýmir-16 (21)] | 87.7 | 7.76 |  | 0.3 | IC50 (human recombinant AChE; read-out: AChE pIC50 ± SEM (converted)): 7.94 µM; α7 nAChR %Inhibition (human α7 nAChR [1]; 100 µM compound co-applied with 30 µM ACh): 97.3 ± 1%; inhibition at 100 µM (human α7 nAChR [1]; read-out: α7 nAChR %Inhibition, 100 µM compound co-applied with 30 µM ACh): 97%
16 | CN(C(=O)Cc1ccsc1)[C@H]1CCC[C@H](N2CCCC2)[C@H]1O [Compound 17] | 22.9 |  |  |  | 
17 | O[C@@H]1c2ccc(-c3cccnc3)cc2OC[C@H]1N1CCCC1 [Compound 9] |  |  | 66.7 | 1 | AChE %Inhibition of supernatant (MeOH) (human recombinant AChE): 45.9 ± 3.8%
